Values of other authors, collected in patent US10336750B2, “Composition and methods for the treatment of CaMKK2-mediated disorders” (Duke University, priority 2015, dated 2019).

Test system: neovascular remodeling (NVR) in experimental laser-induced CNV
Conditions: aged (16 month-old) mice, systemic depletion of macrophages, compared to sham control

## O=P(O)(O)C(Cl)(Cl)P(=O)(O)O [clodronate]
  NVR phenotype, lesion size and fibrosis (choroidal flatmounts by FITC-dextran): abrogation of the NVR phenotype, resulting in smaller lesions with less fibrosis
